Experimental data taken from patent US8716472B2, “Tripodal cyclohexane derivatives and their use as carbohydrate receptors” (University of Rochester, priority 2006, dated 2014).
“Also recorded” adds a separate entry of the source.

Tests used:
[1] = 1H NMR reverse titration (receptor into the sugar) and Job plot; type: binding; conditions: CDCl3, n-octyl-β-D-glucopyranoside
Description: (§1) The binding affinity of Compound 12 towards a set of octylglycosides (FIG. 15) was measured using ^1H NMR titrations in CDCl3 and UV titrations in chloroform and methanol.
A reverse titration format (receptor into the sugar) was employed for estimating binding by ^1H NMR titrations in order to avoid the complications caused due to micelles formation by octylglycosides at higher concentrations (Vacca et al., J. Am. Chem. Soc. 126:16456-16465 (2004), which is hereby incorporated by reference in its entirety). […] Job plot analysis (as modified for NMR) (Fokkens et al., Chem. Eur. J. 11:477-494 (2005), which is hereby incorporated by reference in its entirety) verified a 1:1 association between Compound 12 and n-octyl-β-D-glucopyranoside (FIG. 9B).

[2] = Fluorescence titration, octanol control; type: binding; conditions: 298° K
Description: as §1
(§2) The same titration protocol employed in Example 7 was also employed in this Example (methanol at 298° K; duplicate titrations).
(§3) Fluorescence titrations of 7 with the set of octylglycosides (FIG. 15) in methanol were performed to study the effect of substitution of 4-methylquinoline instead of 4-cyanopyridine on the binding affinity and selectivity of Compound 12. […] The stoichiometry of binding between Compound 7 and n-octyl-α-D-glucopyranoside was determined by Job plot to be 1:1 (FIG. 12).

[3] = Fluorescence titration of n-octyl monosaccharides with receptor; type: binding; conditions: 298° K
Description: as §1, §2, §3

[4] = 1D 1H NMR titration of receptor with octyl pyranoside; type: binding; conditions: n-octyl-β-D-glucopyranoside; CDCl3, 298° K; receptor 1 mM
Description: The binding affinity of Compound 11 to octyl pyranosides was tested using 1D ^1H NMR titrations in dry and deacidified CDCl3 at 298° K. The Compound 11 in fixed concentration (1 mM) was titrated with increasing amount of n-octyl-β-D-glucopyranoside and the change in the amide proton resonance of Compound 11 was monitored (FIG. 5A).

[5] = UV-Vis titration, octanol control; type: binding; conditions: 298° K
Description: as §1
(§4) To derive quantitative binding information, UV-Vis titrations were performed. The receptor at fixed concentration was titrated with the octylglycosides in dry and deacidified chloroform or methanol (298° K). Each titration was performed in duplicate to verify results.

[6] = UV-Vis titration of n-octyl monosaccharides with receptor; type: binding; conditions: for Ka in chloroform / Ka in methanol: 298° K
Description: as §1, §4

[7] = n-octyl β-D-galacto pyranoside, UV-Vis

N#Cc1ccncc1 [4-cyanopyridine, reference compound]
changes in carbohydrate hydroxyl chemical shifts on titration into the sugar [1]: no chemical shift changes were observed

c1cnc(C2CC(c3cnccn3)CC(c3cnccn3)C2)cn1 (stereo not drawn) [Compound 2, 2,2′,2″-cyclohexane-1,3,5-triyltripyrazine]
melting point: 122 to 124 °C

c1cc(C2CC(c3ccncn3)CC(c3ccncn3)C2)ncn1 (stereo not drawn) [Compound 3, 4,4′,4″-cyclohexane-1,3,5-triyltripyrimidine]
melting point: 126 to 128 °C

Cc1cc(C2CC(c3cc(C)c4ccccc4n3)CC(c3cc(C)c4ccccc4n3)C2)nc2ccccc12 (stereo not drawn) [Compound 7, 2,2,2″-cyclohexane-1,3,5-triyltri(4-methylquinoline)]
Ka in methanol [2]: (no binding)
Ka in methanol ([3]; n-octyl α-D-galacto pyranoside): 6,600 ± 200 M^−1
Ka in methanol ([3]; n-octyl α-D-gluco pyranoside): 14,900±1700 M^−1
Ka in methanol ([3]; n-octyl α-D-manno pyranoside): 2600 ± 200 M⁻¹
Ka in methanol ([3]; n-octyl β-D-galacto pyranoside): 3,200 ± 80 M^−1
Ka in methanol ([3]; n-octyl β-D-gluco pyranoside): 9,200 ± 600 M^−1
Ka in methanol ([3]; n-octyl β-D-manno pyranoside): >400 M⁻¹

Cc1cccc(NC(=O)[C@H]2C[C@@H](C(=O)Nc3cccc(C)n3)C[C@@H](C(=O)Nc3cccc(C)n3)C2)n1 [Compound 11, cis-cyclohexane-1,3,5-tricarboxylic acid tris-[(6-methyl-pyridin-2-yl)-amide]]
Ka (measured affinity, NMR titration) [4]: 91 M⁻¹

N#Cc1ccnc(C2CC(c3cc(C#N)ccn3)CC(c3cc(C#N)ccn3)C2)c1 (stereo not drawn) [Compound 12, 2,2′,2″-cyclohexane-1,3,5-triyltri(4-cyanopyridinyl)]
Ka in chloroform [5]: No binding; also recorded: (no binding)
affinity for n-octyl-β-D-galactopyranoside relative to the β-D-glucopyranoside ([6]; UV-Vis titration): roughly half
Ka in chloroform ([6]; n-octyl α-D-galacto pyranoside): 17,600 ± 100 M^−1
Ka in methanol ([6]; n-octyl α-D-galacto pyranoside): 9,200 ± 1,100 M^−1
Ka in chloroform ([6]; n-octyl α-D-gluco pyranoside): 183,000±4,200 M^−1
Ka in methanol ([6]; n-octyl α-D-gluco pyranoside): 52,000 ± 2,700 M^−1
Ka in chloroform ([6]; n-octyl α-D-manno pyranoside): 6,700 ± 700 M^−1
Ka in methanol ([6]; n-octyl α-D-manno pyranoside): >1,200 M^−1
Ka in chloroform [6, 7]: 9,800 ± 100 M^−1
Ka in methanol [6, 7]: 7,200 ± 1,700 M^−1
Ka in chloroform ([6]; n-octyl β-D-gluco pyranoside): 25,000 ± 600 M^−1
Ka in methanol ([6]; n-octyl β-D-gluco pyranoside): 11,100 ± 600 M^−1
Ka in chloroform ([6]; n-octyl β-D-manno pyranoside): did not reach saturation up to the limit of the titration; also recorded: (not saturable)
Ka in methanol ([6]; n-octyl β-D-manno pyranoside): (not saturable)
changes in carbohydrate hydroxyl chemical shifts on titration into the sugar [1]: clearly visible

N#Cc1ccnc(C2CC(c3cc(C#N)ccn3)CC(c3cnccc3C#N)C2)c1 (stereo not drawn) [Compound 14, 2,2′,3′-cyclohexane-1,3,5-triyltri(4-cyanopyridinyl)]
Ka in chloroform ([6]; n-octyl α-D-gluco pyranoside): no affinity
